The values below come from PubChem BioAssay AID330 (DTP/NCI, 2004).

The subject of this assay is P388 leukemia ip, CD2F1 mice, survival T/C. The assay can be described thus: NCI In Vivo Anticancer Drug Screen. Data for tumor model P388 Leukemia (intraperitoneal) in CD2F1 (CDF1) mice. Particulars: endpoint: median survival time, higher = longer survival. An outline of the steps: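 Mice carrying the transplanted tumor received test compound or vehicle. Survival was recorded in each group, and the value is the treated-group measurement divided by that of the vehicle-treated control group.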

[1] abbreviates: dose: 50.0 mg/kg/injection, schedule: Q01DX005 (ip), vehicle: saline with Tween-80.
Setting [2] is: dose: 100.0 mg/kg/injection, schedule: Q01DX005 (ip), vehicle: saline with Tween-80.
The mark [3] stands for this setting: dose: 200.0 mg/kg/injection, schedule: Q01DX005 (ip), vehicle: saline with Tween-80.
[4] abbreviates: dose: 50.0 mg/kg/injection, schedule: Q01DX005 (ip), vehicle: Klucel (hydroxypropylcellulose) (HPC).
Where [5] appears, read: dose: 100.0 mg/kg/injection, schedule: Q01DX005 (ip), vehicle: Klucel (hydroxypropylcellulose) (HPC).
[6] abbreviates: dose: 200.0 mg/kg/injection, schedule: Q01DX005 (ip), vehicle: Klucel (hydroxypropylcellulose) (HPC).
Where [7] appears, read: dose: 50.0 mg/kg/injection, schedule: Q01DX009 (ip), vehicle: saline with Tween-80.
Setting [8] is: dose: 100.0 mg/kg/injection, schedule: Q01DX009 (ip), vehicle: saline with Tween-80.
The mark [9] stands for this setting: dose: 200.0 mg/kg/injection, schedule: Q01DX009 (ip), vehicle: saline with Tween-80.

Values joined by “and” are separate entries in the source; they are usually repeats but may differ in a detail not shown here. Equal entries are not always repeated. Inconclusive results and toxic doses are left out.

As for `CCCCN(CCCC)CC(O)c1ccc(OC)c2ccccc12` (stereo not drawn), the T/C by setting is: under setting [1], 102 % of control; under setting [2], 107 % of control; under setting [3], 98 % of control.
Take `C=C1C(=O)OC2C/C(C=O)=C/CC/C(C)=C/C(O)C12` (stereo not drawn): the T/C is, setting by setting: (dose: 9.0 mg/kg/injection, schedule: Q01DX005 (ip), vehicle: Klucel (hydroxypropylcellulose) (HPC)) 96 % of control; (dose: 18.0 mg/kg/injection, schedule: Q01DX005 (ip), vehicle: Klucel (hydroxypropylcellulose) (HPC)) 99 % of control; (dose: 36.0 mg/kg/injection, schedule: Q01DX005 (ip), vehicle: Klucel (hydroxypropylcellulose) (HPC)) 105 % of control; (dose: 72.0 mg/kg/injection, schedule: Q01DX005 (ip), vehicle: Klucel (hydroxypropylcellulose) (HPC)) 106 % of control.
For `CCO/C([O-])=C(/C(=N/S(=O)(=O)c1ccc(C)cc1)SC)[n+]1ccccc1`, the T/C (dose: 25.0 mg/kg/injection, schedule: Q04DX002 (ip), vehicle: saline with Tween-80) is 100 % of control; the T/C (dose: 50.0 mg/kg/injection, schedule: Q04DX002 (ip), vehicle: saline with Tween-80) is 99 % of control; the T/C (dose: 100.0 mg/kg/injection, schedule: Q04DX002 (ip), vehicle: saline with Tween-80) is 99 % of control.
`Cc1cc2nc(-c3cc4cc(Cl)cc(Cl)c4oc3=O)[nH]c2cc1C`: the T/C by setting is: (dose: 25.0 mg/kg/injection, schedule: Q01DX005 (ip), vehicle: Klucel (hydroxypropylcellulose) (HPC)) 98 % of control; under setting [4], 95 % of control; under setting [5], 96 % of control; under setting [6], 96 % of control.
For `COP(=O)(OC)/C(=N\NS(=O)(=O)c1ccc(C)cc1)c1ccccc1`, the T/C runs as follows: under setting [7], 100 % of control; under setting [8], 103 % of control; under setting [9], 117 % of control; (dose: 400.0 mg/kg/injection, schedule: Q01DX009 (ip), vehicle: saline with Tween-80) 119 % of control.
`CC(C)CC(NC(=O)C(Cc1ccccc1)NC(=O)CNC(=O)CNC(=O)C(N)Cc1ccc(O)cc1)C(N)=O` (stereo not drawn): the T/C by setting is: (dose: 8.75 mg/kg/injection, schedule: Q01DX005 (ip), vehicle: saline) 108 % of control; (dose: 17.5 mg/kg/injection, schedule: Q01DX005 (ip), vehicle: saline) 110 % of control; (dose: 35.0 mg/kg/injection, schedule: Q01DX005 (ip), vehicle: saline) 104 % of control; (dose: 70.0 mg/kg/injection, schedule: Q01DX005 (ip), vehicle: saline) 112 % of control; (dose: 140.0 mg/kg/injection, schedule: Q01DX005 (ip), vehicle: saline) 108 % of control.
As for `CC(C)CC([NH-])C(=O)O.CC(C)CC([NH-])C(=O)O.CC(C)CC([NH-])C(=O)O.[Pr+3]` (stereo not drawn), the T/C by setting is: under setting [4], 107 % of control; under setting [5], 102 % of control; under setting [6], 98 % of control.
In the same order, the values of `Cn1c(N)nc(N)c(NC=O)c1=O` are 101 % of control, 103 % of control and 101 % of control.
Consider `COc1ccc(/C=N/NC(=S)NC23CC4CC(CC(C4)C2)C3)cc1OC`, for which the T/C runs as follows: (dose: 15.0 mg/kg/injection, schedule: Q01DX005 (ip), vehicle: saline with Tween-80) 93 % of control; (dose: 30.0 mg/kg/injection, schedule: Q01DX005 (ip), vehicle: saline with Tween-80) 89 % of control; (dose: 60.0 mg/kg/injection, schedule: Q01DX005 (ip), vehicle: saline with Tween-80) 89 % of control.
Regarding `Cl[Si](Cl)(Cl)CCc1ccccn1`, the T/C is 99 % of control (dose: 25.0 mg/kg/injection, schedule: Q01DX009 (ip), vehicle: saline); 86 % of control (dose: 50.0 mg/kg/injection, schedule: Q01DX009 (ip), vehicle: saline); 95 % of control (dose: 100.0 mg/kg/injection, schedule: Q01DX009 (ip), vehicle: saline); 100 % of control (dose: 200.0 mg/kg/injection, schedule: Q01DX009 (ip), vehicle: saline).
In the case of `CC(C)(C)NCC(O)CCl` (stereo not drawn), the T/C was 113 % of control (dose: 25.0 mg/kg/injection, schedule: Q01DX009 (ip), vehicle: water); 99 % of control (dose: 50.0 mg/kg/injection, schedule: Q01DX009 (ip), vehicle: water); 99 % of control (dose: 100.0 mg/kg/injection, schedule: Q01DX009 (ip), vehicle: water); 103 % of control (dose: 200.0 mg/kg/injection, schedule: Q01DX009 (ip), vehicle: water).
Regarding `O=C1Nc2ccccc2/C1=c1/sc2nc3ccccc3n2c1=O`, the T/C runs as follows: (dose: 200.0 mg/kg/injection, schedule: Q01DX001 (ip), vehicle: Klucel (hydroxypropylcellulose) (HPC)) 89 % of control; (dose: 400.0 mg/kg/injection, schedule: Q01DX001 (ip), vehicle: Klucel (hydroxypropylcellulose) (HPC)) 89 % of control.
Regarding `Clc1ccc(S[As](Sc2ccc(Cl)cc2)Sc2ccc(Cl)cc2)cc1`, the T/C (dose: 100.0 mg/kg/injection, schedule: Q04DX002 (ip), vehicle: Klucel (hydroxypropylcellulose) (HPC)) was 121 % of control; the T/C (dose: 200.0 mg/kg/injection, schedule: Q04DX002 (ip), vehicle: Klucel (hydroxypropylcellulose) (HPC)) was 114 % of control; the T/C (dose: 400.0 mg/kg/injection, schedule: Q04DX002 (ip), vehicle: Klucel (hydroxypropylcellulose) (HPC)) is 113 % of control.
On to `COC1CC(N)C2OC(c3ccccc3)OCC2O1` (stereo not drawn), for which the T/C under setting [7] was 99 % of control, the T/C under setting [8] was 101 % of control and the T/C under setting [9] was 109 % of control.
On to `CCCC(=O)NC`, for which the T/C is 102 % of control (dose: 25.0 mg/kg/injection, schedule: Q01DX005 (ip), vehicle: saline); 99 % of control (dose: 50.0 mg/kg/injection, schedule: Q01DX005 (ip), vehicle: saline); 110 % of control (dose: 100.0 mg/kg/injection, schedule: Q01DX005 (ip), vehicle: saline); 104 % of control (dose: 200.0 mg/kg/injection, schedule: Q01DX005 (ip), vehicle: saline); 99 % of control (dose: 400.0 mg/kg/injection, schedule: Q01DX005 (ip), vehicle: saline).
For `C=CCC1(COS(N)(=O)=O)OC(n2cnc3c(N)ncnc32)C(O)C1O` (stereo not drawn), the T/C reads like this: (dose: 50.0 mg/kg/injection, schedule: Q01DX001 (ip), vehicle: saline) 101 % of control; (dose: 100.0 mg/kg/injection, schedule: Q01DX001 (ip), vehicle: saline) 101 % of control; (dose: 200.0 mg/kg/injection, schedule: Q01DX001 (ip), vehicle: saline) 111 % of control; (dose: 400.0 mg/kg/injection, schedule: Q01DX001 (ip), vehicle: saline) 99 % of control.
In the case of `Cc1cc(NC(=O)c2ccc(C(=O)Nc3ccc(N=Nc4cc(S(=O)(=O)O)c5cccc(S(=O)(=O)O)c5c4)c(C)c3)cc2)ccc1N=Nc1cc(S(=O)(=O)O)c2cccc(S(=O)(=O)O)c2c1`, the T/C under setting [1] is 94 % of control, the T/C under setting [2] is 93 % of control and the T/C under setting [3] was 98 % of control.
Take `COc1ccc2c(c1)CCCN2`: the T/C is, setting by setting: (dose: 25.0 mg/kg/injection, schedule: Q01DX009 (ip), vehicle: saline with Tween-80) 105 % of control and 108 % of control; under setting [7], 103 % of control and 108 % of control; under setting [8], 117 % of control.
As to `COc1cccc2c1C(=O)c1c(O)c3c(c(O)c1C2=O)CC(O)(C(O)CO)CC3OC1CC(N2CCCCC2)C(O)C(C)O1` (stereo not drawn), the T/C reads like this: (dose: 0.39 mg/kg/injection, schedule: Q01DX009 (ip), vehicle: water) 115 % of control; (dose: 1.56 mg/kg/injection, schedule: Q01DX009 (ip), vehicle: water) 153 % of control and 157 % of control; (dose: 2.4 mg/kg/injection, schedule: Q04DX003 (ip), vehicle: water) 100 % of control; (dose: 4.7 mg/kg/injection, schedule: Q04DX003 (ip), vehicle: water) 106 % of control; (dose: 9.4 mg/kg/injection, schedule: Q04DX003 (ip), vehicle: water) 114 % of control and 124 % of control; (dose: 18.8 mg/kg/injection, schedule: Q04DX003 (ip), vehicle: water) 124 % of control. Further, the T/C (dose: 75.0 mg/kg/injection, schedule: Q04DX003 (ip), vehicle: water) was 101 % of control.
In the case of `COc1cccc(C(c2cc3c(cc2O)OCO3)N2CCN(C(c3cc4c(cc3O)OCO4)c3cccc(OC)c3O)CC2)c1O` (stereo not drawn), the T/C was 98 % of control (dose: 60.0 mg/kg/injection, schedule: Q01DX005 (ip), vehicle: saline); 98 % of control (dose: 120.0 mg/kg/injection, schedule: Q01DX005 (ip), vehicle: saline); 100 % of control (dose: 240.0 mg/kg/injection, schedule: Q01DX005 (ip), vehicle: saline).
